Tests used:
morningglory [1] = test: Test C pre-/postemergence herbicide test; type: in vivo, Ipomoea coccinea; set-up: key to Plant response rating, Morningglory: 0 = no effect, 100 = complete control; conditions: preemergence
Method in brief: (§1)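 Emerged plants at the 1- to 4-leaf stage (2–18 cm), or freshly planted seeds, received test chemicals in a non-phytotoxic solvent mixture with surfactant. Response was visually scored against controls after 12 to 14 days in the greenhouse, on a 0 (no effect) to 100 (complete control) scale.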

soybean = test: Test C pre-/postemergence herbicide test; type: in vivo, Glycine max; conditions: preemergence
Method in brief: as §1

[2] = system: common (oilseed) sunflower; test: Test C pre-/postemergence herbicide test; type: in vivo, Helianthus annuus; conditions: preemergence
Method in brief: as §1

[3] = system: smallflower umbrella sedge; test: Test C flooded paddy test; type: in vivo, Cyperus difformis
kochia = test: Test C pre-/postemergence herbicide test; type: in vivo, Kochia scoparia; conditions: preemergence
Method in brief: as §1

giant foxtail = test: Test C pre-/postemergence herbicide test; type: in vivo, Setaria faberi; conditions: preemergence
Method in brief: as §1

goosegrass = test: Test C pre-/postemergence herbicide test; type: in vivo, Eleusine indica; conditions: preemergence
Method in brief: as §1

bermudagrass = test: Test C pre-/postemergence herbicide test; type: in vivo, Cynodon dactylon; conditions: preemergence
Method in brief: as §1

morningglory [4] = test: Test A pre-/postemergence herbicide test; type: in vivo, Ipomoea spp.; conditions: for Plant response rating, Morningglory: Postemergence; for Morningglory plant response rating: Preemergence
Method in brief: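 Both application timings were run together: directed soil spray over freshly planted seeds in sandy loam, and runoff spray onto 2–10 cm seedlings. Evaluation after ~10 days in greenhouse used a 0–100 visual scale versus untreated controls.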

[5] = 500 g ai/ha, scale 0 to 100 (0 no effect, 100 complete control), visual, 12 to 14 days
[6] = 125 g ai/ha, scale 0 (no effect) to 100 (complete control), visual, 12 to 14 days
[7] = 250 g ai/ha, scale 0 to 100 (0 no effect, 100 complete control), visual, 12 to 14 days
[8] = 2000 g ai/ha, 0 to 100 scale, 0 no effect, 100 complete control

CCC1=NN(C(C)(C)C)CC1C(=O)Nc1cc(C(=O)N2CC=CC2)ccc1F (racemic) [Compound 340]
10: Plant response rating, Morningglory (morningglory [1]; 250 g ai/ha, scale 0-100) | Plant response rating, Soybean (soybean; [5]) | Plant response rating, Kochia (kochia; 62 g ai/ha, scale 0 to 100) | Plant response rating (0 = no effect, 100 = complete control), Foxtail, Giant (giant foxtail; 125 g ai/ha)
20: Plant response rating (0 = no effect, 100 = complete control), Kochia (kochia; 125 g ai/ha) | Plant response rating, Bermudagrass (bermudagrass; 62 g ai/ha, scale 0 to 100, 0 no effect, 100 complete control)
50: Plant response rating, Morningglory (morningglory [1]; [5]) | Sedge, Umbrella plant response rating ([3]; 62 g ai/ha, scale 0 to 100)
60: Plant response rating, Foxtail, Giant (giant foxtail; 250 g ai/ha, scale 0-100) | Plant response rating (0 = no effect, 100 = complete control), Goosegrass (goosegrass; 125 g ai/ha)
70: Sedge, Umbrella plant response rating ([3]; 125 g ai/ha, scale 0 to 100 (0 no effect, 100 complete control)) | Sedge, Umbrella plant response rating ([3]; 250 g ai/ha, scale of 0 to 100, 0 is no effect, 100 is complete control) | Plant response rating (0 = no effect, 100 = complete control), Bermudagrass (bermudagrass; 125 g ai/ha)
5: Plant response rating (0 = no effect, 100 = complete control), Morningglory (morningglory [1]; 125 g ai/ha) | Plant response rating, Sunflower [2, 5] | Plant response rating, Goosegrass (goosegrass; 62 g ai/ha, scale 0 to 100)
90: Plant response rating, Sedge, Umbrella ([3]; 500 g ai/ha, visual rating after 12 to 14 days, scale 0 to 100 (0 no effect, 100 complete control)) | Plant response rating, Kochia (kochia; 250 g ai/ha, scale 0-100) | Plant response rating, Goosegrass (goosegrass; [5])
85: Plant response rating, Foxtail, Giant (giant foxtail; [5]) | Plant response rating, Goosegrass (goosegrass; 250 g ai/ha, scale 0-100) | Plant response rating, Bermudagrass (bermudagrass; 250 g ai/ha, scale 0-100)
0: Plant response rating, Morningglory (morningglory [1]; 62 g ai/ha, scale 0 to 100) | Plant response rating, Soybean (soybean; 62 g ai/ha, scale 0 to 100) | Plant response rating (0 = no effect, 100 = complete control), Soybean (soybean; 125 g ai/ha) | Plant response rating, Soybean (soybean; 250 g ai/ha, scale 0-100) | Plant response rating, Sunflower ([2]; 62 g ai/ha, scale 0 to 100) | Plant response rating (0 = no effect, 100 = complete control), Sunflower ([2]; 125 g ai/ha) | Plant response rating, Sunflower ([2]; 250 g ai/ha, scale 0-100) | Plant response rating, Foxtail, Giant (giant foxtail; 62 g ai/ha, scale 0 to 100)
100: Plant response rating, Kochia (kochia; [5]) | Plant response rating, Bermudagrass (bermudagrass; [5])

CCCCn1nc(C(C)(C)C)cc1C(=O)Nc1cccc(C(=O)NCC)c1 [Compound 41]
0: Plant response rating, Morningglory (morningglory [1]; 31 g ai/ha, scale 0 to 100) | Plant response rating (0 = no effect, 100 = complete control), Morningglory (morningglory [1]; 62 g ai/ha) | Plant response rating, Morningglory (morningglory [1]; [6]) | Plant response rating, Soybean (soybean; 31 g ai/ha, scale 0 to 100) | Plant response rating (0 = no effect, 100 = complete control), Soybean (soybean; 62 g ai/ha) | Plant response rating, Soybean (soybean; [6]) | Plant response rating, Sunflower ([2]; 31 g ai/ha, scale 0 to 100) | Plant response rating (0 = no effect, 100 = complete control), Sunflower ([2]; 62 g ai/ha) | Plant response rating, Sunflower [2, 6] | Plant response rating, Sunflower [2, 7] | Plant response rating, Kochia (kochia; 31 g ai/ha, scale 0 to 100) | Plant response rating, Foxtail, Giant (giant foxtail; 31 g ai/ha, scale 0 to 100)
100: Plant response rating, Bermudagrass (bermudagrass; [7])
45: Morningglory plant response rating (morningglory [4]; [8])
50: Plant response rating, Bermudagrass (bermudagrass; [6])
10: Plant response rating, Soybean (soybean; [7]) | Plant response rating, Morningglory (morningglory [4]; 500 g ai/ha, 0 to 100 scale, 0 no effect, 100 complete control) | Plant response rating, Morningglory (morningglory [4]; [8]) | Plant response rating, Goosegrass (goosegrass; 31 g ai/ha, scale 0 to 100)
40: Plant response rating, Goosegrass (goosegrass; [7])
20: Plant response rating, Morningglory (morningglory [1]; [7]) | Morningglory plant response rating (morningglory [4]; 500 g ai/ha, visual rating, 0 to 100 scale (0 no effect, 100 complete control)) | Plant response rating (0 = no effect, 100 = complete control), Kochia (kochia; 62 g ai/ha) | Plant response rating, Kochia (kochia; [6]) | Plant response rating (0 = no effect, 100 = complete control), Foxtail, Giant (giant foxtail; 62 g ai/ha) | Plant response rating, Foxtail, Giant (giant foxtail; [6]) | Plant response rating (0 = no effect, 100 = complete control), Goosegrass (goosegrass; 62 g ai/ha)
30: Plant response rating, Kochia (kochia; [7]) | Plant response rating, Foxtail, Giant (giant foxtail; [7]) | Plant response rating, Goosegrass (goosegrass; [6]) | Plant response rating, Bermudagrass (bermudagrass; 31 g ai/ha, scale 0 to 100) | Plant response rating (0 = no effect, 100 = complete control), Bermudagrass (bermudagrass; 62 g ai/ha)

From patent US20060069132A1, “Azolecarboxamide herbicides” (priority 2004, published 2006)
